Reference: PubChem BioAssay (NCI)
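Method: 48-hour compound exposure of cells in 96-well plates, five concentrations, linear interpolation of endpoints. GI50 = concentration required for 50% inhibition of growth. At the TGI there is no net growth.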

What was measured:
Assay in all cases: DTP human tumour cell line panel, 48 h
DLD-1 colon = system: DLD-1 colon
DMS 114 small cell lung = system: DMS 114 small cell lung
EKVX NSCLC = system: EKVX NSCLC
OVCAR-4 ovarian = system: OVCAR-4 ovarian
SNB-75 CNS = system: SNB-75 CNS
SW-620 colon = system: SW-620 colon
UO-31 renal = system: UO-31 renal
PC-3 prostate = system: PC-3 prostate
SK-MEL-5 melanoma = system: SK-MEL-5 melanoma
T-47D breast = system: T-47D breast

| Structure (SMILES) | TGI (DLD-1 colon) [µM] | TGI (DMS 114 small cell lung) [µM] | TGI (EKVX NSCLC) [µM] | TGI (OVCAR-4 ovarian) [µM] | TGI (SNB-75 CNS) [µM] | TGI (SW-620 colon) [µM] | TGI (UO-31 renal) [µM] | GI50 (EKVX NSCLC) [µM] | GI50 (OVCAR-4 ovarian) [µM] | GI50 (PC-3 prostate) [µM] | TGI (PC-3 prostate) [µM] | GI50 (SK-MEL-5 melanoma) [µM] | TGI (SK-MEL-5 melanoma) [µM] | GI50 (SNB-75 CNS) [µM] | GI50 (SW-620 colon) [µM] | GI50 (T-47D breast) [µM] | TGI (T-47D breast) [µM] | GI50 (UO-31 renal) [µM] |
| --- | --- | --- | --- | --- | --- | --- | --- | --- | --- | --- | --- | --- | --- | --- | --- | --- | --- | --- |
| Cc1cc2c(c(C#N)c1C)NC(=O)CCC2=O | > 100 | > 100 | > 100 | > 100 | > 100 | > 100 | 91.4 | – | – | – | – | – | – | – | – | – | – | – |
| O=[N+]([O-])C1C(c2ccccc2)C12c1ccccc1-c1ccccc12 (centres undefined) | – | – | > 100 | > 100 | 14 | 8.2 | 18.8 | 3.22 | 3.56 | 0.947 | > 100 | 0.515 | 9.48 | 0.612 | 0.424 | 2.73 | 23.2 | 2.06 |
| CC(=O)n1c(COS(C)(=O)=O)nc2ccccc21 | – | – | > 100 | > 100 | > 100 | > 100 | > 100 | – | – | – | > 100 | – | > 100 | – | – | – | > 100 | – |
| COc1nc(N(C)O)nc(N(C)O)n1 | – | – | > 100 | > 100 | > 100 | > 100 | > 100 | 1.56 | 2.33 | 3.1 | > 100 | 1.47 | 23.1 | 10 | 2.57 | 4.51 | > 100 | 1.13 |
| Cc1ccc(-[n+]2c3cc(N)c(C)cc3nc3cc(C)c(Nc4ccccc4)cc32)cc1 | – | – | 1.03 | 1.59 | 0.419 | 1.08 | 1.03 | 0.0651 | 0.333 | 0.174 | 1.77 | 0.147 | 0.289 | 0.154 | 0.0708 | 0.0886 | 1.02 | 0.27 |
| O=C(CNc1nncs1)NO | > 100 | > 100 | > 100 | > 100 | > 100 | > 100 | > 100 | – | – | – | – | – | – | – | – | – | – | – |
| CCOc1ccccc1NC(=O)C(=O)CC(=O)c1c(C)n([O-])c2ccccc2[n+]1=O | – | > 100 | > 100 | > 100 | > 100 | > 100 | > 100 | – | – | – | – | – | > 100 | – | – | – | – | – |
| Nc1nc(SCc2ccccn2)c2ncn(C3CCCC3)c2n1 | – | – | > 100 | > 100 | > 100 | > 100 | 32.7 | – | – | – | > 100 | – | > 100 | – | – | – | > 100 | – |
| O=C(Nc1ccc(N2CCNCC2)cc1)c1[nH]ncc1Nc1ncnc2sc3c(c12)CCC3 | – | – | 1.94 | 2.26 | 1.59 | 0.756 | 1.84 | 0.194 | 0.321 | 0.179 | 1.49 | 0.381 | 1.79 | 0.0657 | 0.157 | 0.852 | 3.53 | 0.431 |
| Cc1cnc2c(C)ccc([N+](=O)[O-])c2c1NCCCN(C)C | – | > 100 | > 100 | > 100 | – | > 100 | > 100 | – | – | – | – | – | – | – | – | – | – | – |
| COc1cc(OC)c([C@@H]2OC(=O)C3C2C(=O)O[C@H]3c2cc(OC)c(OC)cc2OC)cc1OC (some centres undefined) | > 100 | > 100 | > 100 | > 100 | > 100 | > 10 | > 100 | – | – | – | – | – | – | – | – | – | – | – |
| Cc1cc(C)nc(NS(=O)(=O)c2ccc(Nc3c4ccccc4nc4c(C(=O)Nc5ccc(S(=O)(=O)N=C(N)N)cc5)ccc(Cl)c34)cc2)n1 | > 100 | 41.8 | > 100 | 75.4 | > 100 | – | 73.9 | – | – | – | – | – | > 100 | – | – | – | – | – |
| N#Cc1c(-c2nc3ccccc3s2)c(=O)oc2cc(O)ccc12 | – | – | > 100 | > 100 | > 100 | > 100 | 74.9 | – | – | – | > 100 | – | 69.8 | – | – | – | 78.2 | – |
| Nc1ccn(CCOC(=O)c2ccccc2)c(=O)n1 | > 100 | – | > 100 | > 100 | > 100 | > 100 | > 100 | – | – | – | – | – | > 100 | – | – | – | – | – |
| COc1ccc2nc(N/N=C(\C)c3ccccn3)cc(C)c2c1 | – | – | 0.971 | 2.57 | 7.49 | 1.75 | 1.08 | 0.134 | 0.156 | 0.433 | 5.68 | 0.244 | 1.12 | 1.82 | 0.381 | 0.0766 | 1.61 | 0.161 |
| CNC(=O)c1cc(OC2CCC(NC(=O)Nc3ccc(Cl)c(C(F)(F)F)c3)CC2)ccn1 (centres undefined) | – | – | 58.7 | 49.6 | 38.9 | 31.2 | 21.7 | 7.46 | 4.53 | 3.51 | > 44.6 | 3.07 | 10.9 | 16 | 11.5 | 5.31 | 39.4 | 7.09 |
| C=C1C(=O)O[C@H]2[C@H]1CC/C(Cn1cc(CNC(=O)Cc3cn(C(=O)c4ccc(Cl)cc4)c4ccc(OC)cc34)nn1)=C\CC[C@@]1(C)O[C@@H]21 | – | – | 7.33 | 3.02 | 4.02 | 2.65 | 3.05 | 2.29 | 1.44 | 1.89 | 3.71 | 1.77 | 3.28 | 1.54 | 0.932 | 1.73 | 5.05 | 1.53 |
| CS(=O)(=O)CCNCc1nc(-c2ccc3ncnc(Nc4ccc(F)c(Cl)c4)c3c2)cs1 | – | – | > 25 | > 25 | > 25 | > 25 | > 25 | 0.0927 | 14.7 | 14.7 | > 25 | 11.5 | > 25 | > 18.3 | > 25 | 8.57 | > 25 | 6.81 |
| O=[N+]([O-])c1ccc(C(c2c[nH]c3ccccc23)c2c[nH]c3ccccc23)cc1 | – | – | 48.2 | 28.2 | 18.5 | 27.9 | 22.9 | – | – | – | 28.4 | – | 20.2 | – | – | – | 7.07 | – |
| O=C(O)c1c(-c2cccc3ccccc23)sc(-c2cccc3ccccc23)c1C(=O)O | > 100 | > 100 | > 100 | – | > 100 | > 100 | > 100 | – | – | – | – | – | > 100 | – | – | – | – | – |
